These molecules were tested against T1, PSMA (Homo sapiens, UniProt Q04609) (assay: Relative binding affinity of DUPA-NIR conjugates versus 100 nM DUPA-FITC (14) on PSMA-positive 22Rv1 human prostate cancer cells, flow cytometry). Details: PSMA-positive 22Rv1 cells, 1 h at 37° C., 100 nM DUPA-FITC competitor.
T1 construct: PSMA-positive 22Rv1 human prostate cancer cells; endogenous in cells; host or cells: 22Rv1 human prostate cancer cells
Method: (§1) FIG. 3—Relative binding affinities of DUPA-NIR conjugates 1-9 with respect to DUPA-FITC (14). PSMA-positive 22Rv1 human prostate cancer cells were incubated for 1 h at 37° C. in the presence of 100 nM DUPA-FITC with increasing concentrations of DUPA-NIR conjugates. […] Cell bound fluorescence was assayed as using flow cytometry.
as §1, with “6—Relative” for “3—Relative”, “with aromatic amino acids linkers” for “1-9”
as §1, with “14—Relative” for “3—Relative”, “conjugates” for “conjugates 1-9”
PSMA-positive 22Rv1 human prostate cancer cells were incubated for 1 h at 37° C. in the presence of 100 nM DUPA-FITC with increasing concentrations of DUPA-NIR conjugates. […] Cell bound fluorescence was assayed as using flow cytometry.
FIG. 23—Relative binding affinities of DUPA-NIR conjugates with respect to DUPA-FITC (14). […] Cell bound fluorescence was assayed as using flow cytometry.
FIG. 31—Relative binding affinities of DUPA-NIR conjugates with respect to DUPA-FITC (14). […] Cell bound fluorescence was assayed as using flow cytometry.
FIG. 36—Relative binding affinities of PSMA-targeted NIR conjugates with respect to DUPA-FITC (14). […] Cell bound fluorescence was assayed as using flow cytometry.
FIG. 3 Relative binding affinities of DUPA-NIR conjugates 1-9 with respect to DUPA-FITC (14). […] Cell bound fluorescence was assayed as using flow cytometry.
FIG. 24: Relative binding affinities of DUPA-NIR conjugates with respect to DUPA-FITC (14). […] Cell bound fluorescence was assayed as using flow cytometry. […]

T1 sequence (Q04609 whole entry): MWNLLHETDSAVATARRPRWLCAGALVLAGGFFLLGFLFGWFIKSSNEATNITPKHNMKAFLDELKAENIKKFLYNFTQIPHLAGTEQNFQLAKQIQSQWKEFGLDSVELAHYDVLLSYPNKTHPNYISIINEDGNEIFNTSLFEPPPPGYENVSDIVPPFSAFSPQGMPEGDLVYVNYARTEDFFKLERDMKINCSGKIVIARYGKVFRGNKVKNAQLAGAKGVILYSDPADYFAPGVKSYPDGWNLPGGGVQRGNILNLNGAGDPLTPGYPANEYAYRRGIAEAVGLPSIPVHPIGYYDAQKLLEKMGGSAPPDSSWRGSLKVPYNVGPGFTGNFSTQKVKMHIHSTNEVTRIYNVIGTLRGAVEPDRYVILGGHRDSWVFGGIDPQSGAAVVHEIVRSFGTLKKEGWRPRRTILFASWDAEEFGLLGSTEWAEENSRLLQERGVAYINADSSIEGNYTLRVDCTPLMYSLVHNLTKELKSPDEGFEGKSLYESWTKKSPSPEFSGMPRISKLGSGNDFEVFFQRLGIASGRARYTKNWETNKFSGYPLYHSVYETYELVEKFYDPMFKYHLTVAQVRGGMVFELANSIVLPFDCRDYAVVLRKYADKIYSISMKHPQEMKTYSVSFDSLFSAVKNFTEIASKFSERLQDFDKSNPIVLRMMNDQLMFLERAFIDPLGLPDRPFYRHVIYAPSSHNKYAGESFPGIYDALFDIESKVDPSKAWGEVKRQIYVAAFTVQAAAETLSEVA

Compound	Kd [nM]
CC1(C)C(=CC=C2CCOC(C=CC3=[N+](CCCCS(=O)(=O)[O-])c4ccc(S(=O)(=O)O)cc4C3(C)C)=C2c2ccc(C(=O)NCCNC(=O)C(Cc3ccccc3)NC(=O)CCCCCCCNC(=O)CCC(NC(=O)NC(CCC(=O)O)C(=O)O)C(=O)O)cc2)N(CCCCS(=O)(=O)O)c2ccc(S(=O)(=O)O)cc21 (stereo not drawn) [Compound 62]	141
CC1(C)C(=CC=C2CCCC(C=CC3=[N+](CCCCS(=O)(=O)[O-])c4ccccc4C3(C)C)=C2SCC(NC(=O)C(Cc2ccccc2)NC(=O)C(Cc2ccccc2)NC(=O)CCCCCCCNC(=O)CCC(NC(=O)NC(CCC(=O)O)C(=O)O)C(=O)O)C(=O)O)N(CCCCS(=O)(=O)O)c2ccccc21 (stereo not drawn) [Compound 64]	319
CC1(C)C(=CC=C2CCCC(C=CC3=[N+](CCCCS(=O)(=O)[O-])c4ccccc4C3(C)C)=C2Oc2ccc(CC(NC(=O)C(CCCNC(=N)N)NC(=O)C(Cc3ccccc3)NC(=O)CCCCCCCNC(=O)CCC(NC(=O)NC(CCC(=O)O)C(=O)O)C(=O)O)C(=O)O)cc2)N(CCCCS(=O)(=O)O)c2ccccc21 (stereo not drawn) [Compound 65]	983

— patent publication US9801956B2, “PSMA-targeted NIR dyes and their uses” (On Target Laboratories, LLC, priority 2015, dated 2017)
